Experimental data: ChEMBL document CHEMBL1122223, “New developments in Ca2+ channel antagonists” (J Med Chem, 1983)

What was measured:
[1] = species: Oryctolagus cuniculus; experiment: Inhibition of [Ca2+] uptake in rabbit aorta, K+.; assay type: functional; conditions: read-out: ID50 (the source's name)
[2] = species: Oryctolagus cuniculus; experiment: Inhibition of contraction in rabbit aorta, K+.; assay type: functional; conditions: read-out: ID50 (the source's name)
[3] = species: Rattus norvegicus; experiment: Inhibition of [Ca2+] uptake in rat aorta, K+.; conditions: read-out: ID50
[4] = species: Rattus norvegicus; experiment: Inhibition of contraction in rat aorta, K+.; conditions: read-out: ID50
[5] = species: Canis familiaris; experiment: Antagonistic activity against norepinephrine induced contraction in canine coronary; assay type: functional, Canis lupus familiaris
[6] = species: Cavia porcellus; experiment: [Ca2+] antagonistic activity on contraction in guinea pig atria.; assay type: functional; conditions: read-out: ID50 (the source's name)
[7] = species: Canis familiaris; experiment: Antagonistic activity against K+ induced responses in canine coronary.; assay type: functional, Canis lupus familiaris
[8] = species: Felis catus; experiment: [Ca2+] antagonistic activity on [Ca2+] current in cat papillary.; assay type: functional, Papillary muscle
[9] = species: Felis catus; experiment: [Ca2+] antagonistic activity on [Ca2+] current in cat ventricular trabeculae; assay type: functional
[10] = species: Cavia porcellus; experiment: Antagonistic activity against K+ induced responses in guinea pig ileum.; assay type: functional; conditions: read-out: ID50 (the source's name)
[11] = species: Cavia porcellus; experiment: Antagonistic activity against ACh in guinea pig ileum.; assay type: functional; conditions: read-out: ID50 (the source's name)
[12] = species: Oryctolagus cuniculus; experiment: Antagonistic activity against 5-HT in rabbit saphenous; assay type: functional, Saphenous vein
[13] = species: Oryctolagus cuniculus; experiment: Antagonistic activity against 5-HT induced responses in rabbit basilar; assay type: functional
[14] = species: Oryctolagus cuniculus; experiment: Antagonistic activity against K+ induced responses in rabbit basilar.; assay type: functional
[15] = species: Oryctolagus cuniculus; experiment: Antagonistic activity against K+ induced responses in rabbit saphenous; assay type: functional, Saphenous vein
[16] = Dissociation constant for high affinity binding sites in intact cultured cardiac cells
[17] = Dissociation constant for low affinity binding sites in intact cultured cardiac cells
[18] = species: Cavia porcellus; experiment: [Ca2+] antagonistic activity on [Ca2+] current in guinea pig single ventricular cells; assay type: functional; conditions: read-out: ID50 (the source's name)
[19] = system: PC-12; experiment: Ability to block depolarization induced 45Ca uptake into pheochromocytoma PC12 cells; assay type: functional, cell-based; conditions: Rattus norvegicus
[20] = species: Rattus norvegicus; experiment: Effective concentration for negative inotropic effect; assay type: functional, organism-based
[21] = Dissociation constant for binding to isolated membranes from clonal cell line
[22] = species: Canis familiaris; experiment: Antagonistic activity against ACh induced responses in canine trachea; assay type: functional; conditions: Canis lupus familiaris, read-out: ID50 (the source's name)
[23] = species: Canis familiaris; experiment: Antagonistic activity against K+ induced responses in canine trachea.; assay type: functional; conditions: Canis lupus familiaris, read-out: ID50 (the source's name)
[24] = species: Oryctolagus cuniculus; experiment: Inhibition of [Ca2+] uptake in rabbit pulmonary artery, K+.; assay type: functional; conditions: read-out: ID50 (the source's name)
[25] = species: Oryctolagus cuniculus; experiment: Inhibition of contraction in rabbit pulmonary artery, K+.; assay type: functional; conditions: read-out: ID50 (the source's name)
[26] = species: Oryctolagus cuniculus; experiment: Antagonistic activity against K+ induced responses in rabbit aorta; assay type: functional; conditions: read-out: ID50 (the source's name)
[27] = species: Oryctolagus cuniculus; experiment: Antagonistic activity against norepinephrine (NE) induced responses in rabbit aorta; assay type: functional; conditions: read-out: ID50 (the source's name)

Q: What does the source list for `COc1ccc([C@@H]2Sc3ccccc3N(CCN(C)C)C(=O)[C@@H]2OC(C)=O)cc1` [DILTIAZEM]?
A: IC50 [1]: 0.3 µM; IC50 [2]: 0.5 µM

Q: With `Fc1ccc(C(c2ccc(F)cc2)N2CCN(C/C=C/c3ccccc3)CC2)cc1` [FLUNARIZINE] as the molecule, how does the IC50 [3] read?
A: 0.18 µM

Q: What about the IC50 [4] of the same molecule?
A: 0.22 µM

Q: Which ID50 [5] does the source give for `COc1ccc(CCN(C)CCCC(C#N)(c2cc(OC)c(OC)c(OC)c2)C(C)C)cc1OC` (stereo not given) [GALLOPAMIL] here?
A: 0.5 µM

Q: And the IC50 [6]?
A: < 1 µM

Q: What about the IC50 [1] of the same molecule?
A: 0.15 µM

Q: And the IC50 [2]?
A: 0.2 µM

Q: And the ID50 [7]?
A: 0.2 µM

Q: Which results are given for `COC(=O)C1=C(C)NC(C)=C(C(=O)OCCN(C)Cc2ccccc2)C1c1cccc([N+](=O)[O-])c1` (stereo not given) [NICARDIPINE]?
A: IC50 [1]: 0.001 µM; IC50 [2]: 0.0019 µM

Q: With `COC(=O)C1=C(C)NC(C)=C(C(=O)OC)C1c1ccccc1[N+](=O)[O-]` [NIFEDIPINE] as the molecule, how does the ID50 [8] read?
A: 0.6 µM

Q: What about the ID50 [9] of the same molecule?
A: 0.6 µM

Q: What about the IC50 [10] of the same molecule?
A: 0.003 µM

Q: And the IC50 [6]?
A: 1 µM

Q: And the IC50 [11]?
A: 0.005 µM

Q: For `COCCOC(=O)C1=C(C)NC(C)=C(C(=O)OC(C)C)C1c1cccc([N+](=O)[O-])c1` (stereo not given) [NIMODIPINE], which ID50 [12] is on record?
A: >0.0001 M

Q: What about the ID50 [13] of the same molecule?
A: 0.0007 µM

Q: And the ID50 [14]?
A: 0.0002 µM

Q: What about the ID50 [15] of the same molecule?
A: 0.0003 µM

Q: With `CCOC(=O)C1=C(C)NC(C)=C(C(=O)OC)C1c1cccc([N+](=O)[O-])c1` (stereo not given) [NITRENDIPINE] as the molecule, how does the Kd [16] read?
A: 0.00026 µM

Q: What about the Kd [17] of the same molecule?
A: 0.016 µM

Q: What about the IC50 [18] of the same molecule?
A: 0.2 µM

Q: And the IC50 [19]?
A: 0.01 µM

Q: And the EC50 [20]?
A: 0.028 µM

Q: What about the Kd [21] of the same molecule?
A: 0.01 µM

Q: Which results are given for `COc1ccc(CCN(C)CCCC(C#N)(c2ccc(OC)c(OC)c2)C(C)C)cc1OC` (stereo not given) [VERAPAMIL]?
A: ID50 [9]: <10 µM; IC50 [22]: > 1000 µM; IC50 [23]: < 1000 µM; IC50 [1]: 0.0068 µM; IC50 [24]: 0.3 µM; IC50 [2]: 0.17 µM; IC50 [25]: 0.4 µM; IC50 [26]: 0.03 µM; IC50 [27]: 100 µM
